Data reported in US11213481B2, “Tumescent drug delivery” (priority 2004, dated 2022).
Converted amounts (≈) assume the structure as drawn. “And” between values parts separate entries of the source, which are not always exact repeats. Equal values may be shown once. Read-outs that look alike come from different tables or passages of the source.

What was measured:
[1] = cited from earlier work
[2] = cited from earlier work; remark: listed apart in the source
[3] = test system: platelet aggregation induced by ADP, epinephrine and collagen; details: cited from earlier work
[4] = test system: Staphyloccus aureus (MRSA) ATCC 33592; experiment: Minimum Bactericidal Concentration (MBC); format: cell-based, Staphylococcus aureus
Description: Determinations of MBC followed the method described in “Report on the Working Party on Antibiotic Sensitivity Testing of the British Society of Antimicrobial Chemotherapy: A Guide to Sensitivity Testing.”

[5] = test system: platelet function; experiment: Bleeding time and bleeding area before and after tumescent lidocaine exposure (preliminary experiment); format: in vivo, human
Experimental: The skin of the left and right thigh of a subject is cleaned and allowed to dry. […] Simultaneous 4 mm deep puncture wounds are made to the same area of the left and right thighs with disposable lancets. The puncture sites are blotted with filter paper every 30 seconds, until bleeding stops and the bleeding time for each thigh is recorded. The bleeding times of the left and right thigh are compared to determine if administration of TLAnti increases bleeding time. Normal bleeding time measured by the Duke method is 1 to 3 minutes.
In a preliminary experiment, bleeding time and bleeding area were measured in a patient before and after tumescent lidocaine exposure. […] In contrast, there was a 40% increase in Average Bleeding Area (BA). Bleeding Area (BA) was a more sensitive and a more specific test for platelet function compared to Bleeding Time (BT). […] In otherwords, TAD may reduce the risk of both post-operative surgical site infection and post-operative thromboembolism.

[6] = routine local anesthesia with lidocaine; cited from earlier work
[7] = test system: S. aureus; details: effect increases with greater duration of exposure; cited from earlier work
[8] = cited from earlier work; remark: listed apart in the source
[9] = test system: Staphyloccus aureus (MRSA) ATCC 33592; experiment: Minimum Inhibitory Concentration (MIC); details: Staphylococcus aureus
Experimental: Following inoculation, survival of test microorganisms was determined.

[10] = clinical; details: human, in vivo
Experimental: A clinical pharmacologic investigation was conducted to compare the pharmacokinetic advantages of two modes of systemic antibiotic delivery, Tumescent antibiotic delivery (TAD), which involves the delivery of a relatively large volume of an antibiotic-containing solution to the subcutaneous compartment, and intravenous antibiotic delivery (IVAD), which results in direct delivery of antibiotics to the blood stream, for prophylaxis of SSI.
With Institutional Review Board (IRB) approval, the absorption pharmacokinetics of tumescent antibiotic delivery (TAD) and intravenous antibiotic delivery (IVAD) were tested in human subjects and the antibiotic delivery modes were evaluated with respect to the area under the curve (AUC) of antibiotic concentration as a function of time and peak antibiotic concentration (Cmax) in serum and TISF. 4 female subjects participated in at least one study, one subject volunteered for 2 separate studies. 5 studies were conducted: 3 involved TAD to the abdomen, 1 involved TAD to the hips and outer thighs and 1 involved TAD to the breasts. […] Each of the 5 studies consisted of 2 to 3 pharmacokinetic procedures, for a total of 14 procedures. Any procedures conducted on an individual subject were separated by at least one week. In 13 procedures only IVAD or TAD, was used. In one procedure both IVAD and TAD were used concurrently, with IVAD started and finished within five minutes after completing TAD.
TAD was conducted as described herein. Following TAD, sequential 10 ml samples of tumescent adipose tissue were obtained using a hand-held syringe-liposuction technique. Sampling began immediately after completing the TAD infiltration (T0), and continuing until the patients reported significant discomfort. Liposuction aspirate samples were obtained at 0, 1, 2, 3, 4, 6, and 8 hours in all procedures; in 4 TAD procedures, sampling continued until 10 hours. Sequential serum samples for measurement of antibiotic concentration in serum after TAD ([Serum]TAD) were obtained simultaneously.
For IVAD, the antibiotic was delivered into an antecubital vein. Following IVAD, serum samples were taken from the contralateral arm via an indwelling venous catheter beginning immediately after completion of the antibiotic delivery (T0).
The samples of liposuction aspirate were centrifuged to obtain infranatant TISF, which comprises minimally blood-tinged tissue-free residual tumescent solution.
AUC (Area Under the Curve) of drug concentration as a function of time, a metric for measuring the cumulative exposure to an individual drug within a specified tissue, was estimated for time T0 to time Tn using the trapezoid rule: […]

[11] = 1 gm at the end of the surgery; 405 abdominal surgery patients; cited from earlier work
[12] = after vs before tumescent lidocaine exposure
[13] = post-op tumescent lidocaine exposure, Pt# 1, tests T3, T4

SMILES: CO[C@@]1(NC(=O)Cc2cccs2)C(=O)N2C(C(=O)O)=C(COC(N)=O)CS[C@@H]21 [cefoxitin]
- subjects with penetration P=AUC[ISF]IVAD/AUC[SERUM]IVAD less than 0.1 ([1]; normal controls): 3/10
- Penetration PR ([1]; normal weight volunteers, microdialysis): 0.37±0.26
- degree of antibiotic penetration into ISF relative to normal weight subjects ([1]; obese patients): 22%
- subjects with penetration P=AUC[ISF]IVAD/AUC[SERUM]IVAD less than 0.1 ([1]; obese subjects): 8/10
- protein binding [2]: approximately 72%

SMILES: CCOC(=O)c1ccc(N)cc1 [benzocaine]
- platelet aggregation induced by ADP [3]: inhibit

SMILES: CCN(CC)CC(=O)Nc1c(C)cccc1C [Lidocaine]
- MRSA growth (MBC test) ([4]; Day 1, Lidocaine 1,000 mg/L, MRSA inoculum 4.7 × 10^5 CFU/ml): +
- MRSA growth (MBC test) ([4]; Day 2, Lidocaine 1,000 mg/L, MRSA inoculum 4.4 × 10^5 CFU/ml): +
- MRSA growth (MBC test) ([4]; Day 2, Lidocaine 5,000 mg/L, MRSA inoculum 4.4 × 10^5 CFU/ml): +
- MRSA growth (MBC test) ([4]; Day 2, Lidocaine 10,000 mg/L, MRSA inoculum 4.4 × 10^5 CFU/ml): 0
- change in Average Bleeding Time (BT) [5, 12]: essentially no change
- increase in Average Bleeding Area (BA) [5, 12]: 40%
- Lidocaine BA (Average Bleeding Area) ([5]; post-op tumescent lidocaine exposure, Control BA = 541): BA = 759
- Lidocaine BT (Average Bleeding Time) ([5]; post-op tumescent lidocaine exposure, Control BT = 6): BT = 5.75
- Bleeding Area BA [5, 13]: 791.81 and 726.03
- Bleeding Time BT × 2 [5, 13]: 10 and 13
- lidocaine concentration that consistently inhibits in-vitro platelet aggregation ([3]; aggregation induced by ADP, epinephrine and collagen): ≥ 0.5 mg/mL
- effect on platelet aggregation ([3]; at safe systemic concentrations (e.g. ≤6 micrograms/ml)): no effect
- platelet aggregation induced by ADP [3]: inhibit
- duration of local anesthesia [6]: ~2 h
- bactericidal activity in vitro [7]: bactericidal
- dosage limitation approved by the FDA for infiltration local anesthesia ([8]; commercial lidocaine (1%=10 gm/L) with epinephrine (1:100,000=10 mg/L)): 7 mg/kg
- maximum safe mg/kg dosage (estimated) ([8]; tumescent lidocaine, TLA without liposuction, adults): ~30 mg/kg
- MIC [9]: ~5000 µg/mL (≈ 21.3 mM)

SMILES: Cc1ncc([N+](=O)[O-])n1CCO [Metronidazole]
- interval in which serum concentration of metronidazole exceeded 4 μg/ml ([10]; female): 0 to 12 h
- interval in which serum concentration of metronidazole exceeds 4 μg/ml ([10]; female): 0 to 12 h
- AUC ([10]; female, 500 mg, AUC[Serum]IVAD, metronidazole, Study 4, IVAD dose 500 mg): 122 µg·h/mL
- AUC ([10]; female, 500 mg, AUC[Serum]TAD): 67 µg·h/mL
- AUC ([10]; female, 500 mg, AUC[TISF]TAD): 2600 µg·h/mL
- AUC ([10]; female, 600 mg, AUC[Serum]IVAD, metronidazole, Study 5, IVAD dose 600 mg): 127 µg·h/mL
- AUC ([10]; female, 600 mg, AUC[Serum]TAD): 81 µg·h/mL
- AUC ([10]; female, 600 mg, AUC[TISF]TAD, metronidazole, Study 5 (Abdomen) TAD1: 600 mg, 172 mg/L in TAD): 1030 µg·h/mL
- ER3 = ER1/ER2 = AUC[TISF]TAD/AUC[Serum]TAD ([10]; 500 mg): 38.8
- ER3 = ER1/ER2 = AUC[TISF]TAD/AUC[Serum]TAD ([10]; 600 mg): 12.7

SMILES: O=C(Cc1cccs1)N[C@@H]1C(=O)N2C(C(=O)[O-])=C(C[n+]3ccccc3)CS[C@H]12 [cephaloridine]
- incidence of wound infection, intravenous vs intra incisional [11]: no significant difference

SMILES: CCCCN1CCCCC1C(=O)Nc1c(C)cccc1C (stereo not drawn) [bupivacaine]
- platelet aggregation induced by ADP [3]: inhibit

SMILES: Cc1nnc(SCC2=C(C(=O)O)N3C(=O)[C@@H](NC(=O)Cn4cnnn4)[C@H]3SC2)s1 [Cefazolin]
- MRSA growth (MBC test) ([4]; Day 1, Cefazolin 62.5 mg/L, MRSA inoculum 4.7 × 10^5 CFU/ml): +
- MRSA growth (MBC test) ([4]; Day 1, Cefazolin 125 mg/L, MRSA inoculum 4.7 × 10^5 CFU/ml): +
- MRSA growth (MBC test) ([4]; Day 1, Cefazolin 250 mg/L, MRSA inoculum 4.7 × 10^5 CFU/ml): 0
- MRSA growth (MBC test) ([4]; Day 2, Cefazolin 62.5 mg/L, MRSA inoculum 4.4 × 10^5 CFU/ml): +
- MRSA growth (MBC test) ([4]; Day 2, Cefazolin 125 mg/L, MRSA inoculum 4.4 × 10^5 CFU/ml): +
- MRSA growth (MBC test) ([4]; Day 2, Cefazolin 250 mg/L, MRSA inoculum 4.4 × 10^5 CFU/ml): 0
